Results as given in ChEMBL document CHEMBL4346657, “Anticancer activity, dual prooxidant/antioxidant effect and apoptosis induction profile of new bichalcophene-5-carboxamidines” (Eur J Med Chem, 2019).
Activity calls are given as the source filed them. No cut-off for these calls is given here.

Legend:
UACC-62 = assay: Antiproliferative activity against human UACC62 cells assessed as growth inhibition after 48 hrs by sulforhodamine B assay; format: functional; details: UACC-62, 48 h
HT-29 = assay: Antiproliferative activity against human HT-29 cells assessed as growth inhibition after 48 hrs by sulforhodamine B assay; format: functional; details: HT-29, 48 h
T47D = assay: Antiproliferative activity against human T47D cells assessed as growth inhibition after 48 hrs by sulforhodamine B assay; format: functional
HCT-116 [1] = assay: Induction of apoptosis in human HCT116 cells assessed as increase in caspase 3 mRNA expression at 100 nM after 6 hrs hrs by SYBR green dye-based qRT-PCR analysis relative to control; format: functional
HCT-116 [2] = assay: Induction of apoptosis in human HCT116 cells assessed as increase in caspase 9 mRNA expression at 100 nM after 6 hrs hrs by SYBR green dye-based qRT-PCR analysis relative to control; format: functional
EKVX = assay: Antiproliferative activity against human EKVX cells assessed as growth inhibition after 48 hrs by sulforhodamine B assay; format: functional
UO-31 = assay: Antiproliferative activity against human UO31 cells assessed as growth inhibition after 48 hrs by sulforhodamine B assay; format: functional; details: UO-31, 48 h
LOX IMVI = assay: Antiproliferative activity against human LOXIMVI cells assessed as growth inhibition after 48 hrs by sulforhodamine B assay; format: functional
SK-OV-3 = assay: Antiproliferative activity against human SKOV3 cells assessed as growth inhibition after 48 hrs by sulforhodamine B assay; format: functional; details: SK-OV-3, 48 h
SN12C = assay: Antiproliferative activity against human SN12C cells assessed as growth inhibition after 48 hrs by sulforhodamine B assay; format: functional
M14 = assay: Antiproliferative activity against human M14 cells assessed as growth inhibition after 48 hrs by sulforhodamine B assay; format: functional; details: M14, 48 h
[3] = system: Panel NCI-60 (60 carcinoma cell lines); assay: Antiproliferative activity against human NCI60 cells assessed as growth inhibition after 48 hrs by sulforhodamine B assay; format: functional
DU-145 = assay: Antiproliferative activity against human DU145 cells assessed as growth inhibition after 48 hrs by sulforhodamine B assay; format: functional; details: DU-145, 48 h
[4] = Haemolytic activity in human erythrocytes assessed as induction of hemolysis at 1.25 mM after 30 mins relative to H202; format: cell-based, Erythrocyte; details: erythrocytes, read-out: Activity
HCT-116 [5] = assay: Induction of apoptosis in human HCT116 cells assessed as increase in p53 mRNA expression at 100 nM after 6 hrs hrs by SYBR green dye-based qRT-PCR analysis relative to control; format: functional
HOP-62 = assay: Antiproliferative activity against human HOP62 cells assessed as growth inhibition after 48 hrs by sulforhodamine B assay; format: functional; details: HOP-62, 48 h
[6] = Antioxidant activity assessed as ABTS radical scavenging activity by spectrophotometric analysis relative to control; format: functional; design: concentration or dose not given beside the values; details: dose or concentration not given here
ACHN = assay: Antiproliferative activity against human ACHN cells assessed as growth inhibition after 48 hrs by sulforhodamine B assay; format: functional
OVCAR-5 = assay: Antiproliferative activity against human OVCAR5 cells assessed as growth inhibition after 48 hrs by sulforhodamine B assay; format: functional; details: OVCAR-5, 48 h
PC-3 = assay: Antiproliferative activity against human PC3 cells assessed as growth inhibition after 48 hrs by sulforhodamine B assay; format: functional; details: PC-3, 48 h
A498 = assay: Antiproliferative activity against human A498 cells assessed as growth inhibition after 48 hrs by sulforhodamine B assay; format: functional; details: A498, 48 h
NCI-H460 = assay: Antiproliferative activity against human NCI-H460 cells assessed as growth inhibition after 48 hrs by sulforhodamine B assay; format: functional; details: NCI-H460, 48 h
OVCAR-3 = assay: Antiproliferative activity against human OVCAR3 cells assessed as growth inhibition after 48 hrs by sulforhodamine B assay; format: functional; details: OVCAR-3, 48 h
CAKI-1 = assay: Antiproliferative activity against human CAKI-1 cells assessed as growth inhibition after 48 hrs by sulforhodamine B assay; format: functional; details: CAKI-1, 48 h
HL-60(TB) = assay: Antiproliferative activity against human HL-60(TB) cells assessed as growth inhibition after 48 hrs by sulforhodamine B assay; format: functional; details: HL-60, 48 h
[7] = Selectivity index, ratio of IC50 for human WI38 cells to GI50 for human NCI60 cells
SF-295 = assay: Antiproliferative activity against human SF295 cells assessed as growth inhibition after 48 hrs by sulforhodamine B assay; format: functional; details: SF-295, 48 h
RXF 393 = assay: Antiproliferative activity against human RXF393 cells assessed as growth inhibition after 48 hrs by sulforhodamine B assay; format: functional; details: RXF 393, 48 h
HCT-15 = assay: Antiproliferative activity against human HCT15 cells assessed as growth inhibition after 48 hrs by sulforhodamine B assay; format: functional; details: HCT-15, 48 h
OVCAR-8 = assay: Antiproliferative activity against human OVCAR8 cells assessed as growth inhibition after 48 hrs by sulforhodamine B assay; format: functional; details: OVCAR-8, 48 h
SF-268 = assay: Antiproliferative activity against human SF268 cells assessed as growth inhibition after 48 hrs by sulforhodamine B assay; format: functional; details: SF-268, 48 h
[8] = Haemolytic activity in human erythrocytes assessed as induction of hemolysis at 2.5 mM after 30 mins relative to H202; format: cell-based, Erythrocyte; details: erythrocytes, read-out: Activity
[9] = Antioxidant activity assessed as DPPH radical scavenging activity incubated in dark for 30 mins by spectrophotometric method relative to ascorbic acid; format: functional
[10] = Antioxidant activity assessed as hydroxyl radical scavenging activity after 1 hr by salicylic acid-based Fenton reaction assay; format: functional
NCI-H23 = assay: Antiproliferative activity against human NCI-H23 cells assessed as growth inhibition after 48 hrs by sulforhodamine B assay; format: functional; details: NCI-H23, 48 h
KM12 = assay: Antiproliferative activity against human KM12 cells assessed as growth inhibition after 48 hrs by sulforhodamine B assay; format: functional; details: KM12, 48 h
SR = assay: Antiproliferative activity against human SR cells assessed as growth inhibition after 48 hrs by sulforhodamine B assay; format: functional

N=C(N)c1ccc(-c2ccc(-c3ccc(Cl)cc3)o2)o1 gave a GI50 (UACC-62) of 1.89 µM, a GI50 (HT-29) of 1.68 µM and a GI50 (T47D) of 1.71 µM. For the same compound, the “fold change (FC)” value (HCT-116 [1]) was 3.55, the “fold change (FC)” value (HCT-116 [2]) was 4 and the GI50 (EKVX) was 1.5 µM. The GI50 (UO-31) was 1.75 µM, the GI50 (LOX IMVI) was 1.76 µM and the GI50 (SK-OV-3) was 1.79 µM. The GI50 (SN12C) was 1.9 µM, the GI50 (M14) was 1.85 µM and the GI50 [3] was 1.81 µM. The LC50 [3] was 12.6 µM, the TGI [3] was 3.72 µM and the GI50 (DU-145) was 1.75 µM. The hemolysis at 0.5 h, 1250 µM [4] was 14%, the “fold change (FC)” value (HCT-116 [5]) was 1.09 and the GI50 (HOP-62) was 1.65 µM. For the same compound, the inhibition [6] was 20.4%, the GI50 (ACHN) was 1.89 µM and the GI50 (OVCAR-5) was 1.82 µM. The GI50 (PC-3) was 1.81 µM, the GI50 (A498) was 2.12 µM and the GI50 (NCI-H460) was 1.89 µM. The GI50 (OVCAR-3) was 1.83 µM, the GI50 (CAKI-1) was 1.69 µM and the GI50 (HL-60(TB)) was 1.87 µM. The “Selectivity Index” value [7] was 5.5, the GI50 (SF-295) was 1.83 µM and the GI50 (RXF 393) was 1.82 µM. The GI50 (HCT-15) was 1.52 µM, the GI50 (OVCAR-8) was 2.02 µM and the GI50 (SF-268) was 1.75 µM. For the same compound, the hemolysis at 0.5 h, 2500 µM [8] was 41.3%, the fold change (FC) [9] was 0.2 and the Activity [10] was “Active”. The GI50 (NCI-H23) was 1.69 µM, the GI50 (KM12) was 1.63 µM and the GI50 (SR) was 1.63 µM.
